Measurements published in patent US11964950B2, “Arylamide derivative having antitumor activity” (priority 2020, dated 2024).

Tests used:
[1] = test system: NCI-H2122 human lung cancer cells; assay: Cell proliferation-inhibiting activity, NCI-H2122 (CellTiter-Glo, ATP in viable cells); type: cell-based; settings: NCI-H2122, 96 h, Table 3, 4 days culture
Description: (§1) The cell proliferation-inhibiting activity of the compounds listed in Table 3 below was evaluated by measuring the amount of ATP in viable cells as described below.
(§2) The test compound was serially diluted with DMSO and then diluted 25-fold with Ca^2+, Mg^2+-free phosphate-buffered saline, and was then dispensed into a 96-well plate at 5 μL per well. A cell suspension containing the below indicated concentration of A549, Calu-6 or NCI-H2122 human lung cancer cells (all obtained from ATCC) was prepared using the below indicated medium with the addition of 10% fetal bovine serum (Sigma). The cell suspension was dispensed into the test compound-added plate at 95 μL per well and cultured in a 5% carbon dioxide gas incubator at 37° C. After 4 days, 80 μL of CellTiter-Glo (registered trademark) (Promega Corp.) was added to each well and the bioluminescence was measured with a fluorescent plate reader.

[2] = test system: Calu-6 human lung cancer cells; assay: Cell proliferation-inhibiting activity, Calu-6 (CellTiter-Glo, ATP in viable cells); type: cell-based; settings: Calu-6, 96 h, Table 3, 4 days culture
Description: as §1, §2
Calu-6: Eagle's Minimum Essential Medium (Sigma); 4000 cells/95 μL

[3] = test system: A549 human lung cancer cells; assay: Cell proliferation-inhibiting activity, A549 (CellTiter-Glo, ATP in viable cells); type: cell-based; settings: A549, 96 h, Table 3, 4 days culture
Description: as §1, §2
A549: Dulbecco's Modified Eagle's Medium (Sigma); 2000 cells/95 μL

[4] = Human liver microsome stability; type: in vitro ADME; settings: NADPH, 37° C.; for microsomal CLint at 0.99 µM: human liver microsomes (XENOTECH), pH 7.4, hepatic intrinsic clearance; for CLint: hepatic intrinsic clearance, human liver microsomes
Description: There were dispensed 400 μL of 1 mg/mL human liver microsomes (XENOTECH)/0.1 M potassium phosphate buffer (pH 7.4) into each well of a 96-well plate. A DMSO solution (4 μL) of 200 μM test compound was then added, and incubation was conducted until reaching 37° C. To this reaction mixture (200 μL) there was added a solution (200 μL) containing 2 mM NADPH (ORIENTAL YEAST)/0.1 M potassium phosphate buffer (pH 7.4) that had been incubated at 37° C. At 0 min, 5 min, 15 min or 30 min after addition, the reaction mixture (50 μL) was added to acetonitrile (100 μL) to stop the metabolic reaction. After the metabolic reaction was stopped, a 1 μM warfarin aqueous solution (50 μL) was added to each reaction mixture as an internal standard. The reaction mixture was filtered and analyzed by LC/MS/MS (LC: NEXERA by Shimadzu; MS: 4000Q trap by ABSciex; column: Ascentis Express C18 HPLC column (5 cm×2.1 mm, 2.7 μm); ionization method: electrospray ionization). The percent remaining relative to the amount of test compound at 0 min was calculated from the obtained peak area ratio of the test compound to internal standard. The elimination rate constant (ke) was calculated from the incubation time and percent remaining using the primary elimination rate equation, and the hepatic intrinsic clearance (CLint) was calculated using the formula shown below. CLint (μL/min/mg)=ke (min^−1)/human liver microsome concentration (mg protein/μL)

SMILES | IC50 [1] [nM] | IC50 [2] [nM] | IC50 [3] [nM] | microsomal CLint at 0.99 µM [4] [µL/min/mg] | CLint [4] [µL/min/mg]
NC(=O)c1cc(Cc2ccnc(NS(=O)(=O)NC3CC3)c2F)c(F)cc1Nc1ccc(I)cc1F [1-3, 5-[[2-(Cyclopropylsulfamoylamino)-3-fluoropyridin-4-yl]methyl]-4-fluoro-2-(2-fluoro-4-iodoanilino)benzamide] | 21 | 120 | 32 |  | 
CNS(=O)(=O)Nc1nccc(Cc2cc(C(=O)NC3CC3)c(Nc3ccc(I)cc3F)c(F)c2F)c1F [A-2, N-cyclopropyl-3,4-difluoro-2-(2-fluoro-4-iodoanilino)-5-[[3-fluoro-2-(methylsulfamoylamino)pyridin-4-yl]methyl]benzamide] | 0.1 | 2 | 1 |  | 
COCC1(NS(=O)(=O)Nc2nccc(Cc3cc(C(N)=O)c(Nc4ccc(I)cc4F)c(F)c3F)c2F)CC1 [A-16, 3,4-Difluoro-2-(2-fluoro-4-iodoanilino)-5-[[3-fluoro-2-[[1-(methoxymethyl)cyclopropyl]sulfamoylamino]pyridin-4-yl]methyl]benzamide] |  |  |  | 47 | 
CC1(NS(=O)(=O)Nc2nccc(Cc3cc(C(N)=O)c(Nc4ccc(I)cc4F)c(F)c3F)c2F)CC1 [A-23, 3,4-Difluoro-2-(2-fluoro-4-iodoanilino)-5-[[3-fluoro-2-[(1-methylcyclopropyl)sulfamoylamino]pyridin-4-yl]methyl]benzamide] |  |  |  |  | <1
CNS(=O)(=O)Nc1cccc(Cc2cc(C(=O)NC3CC3)c(Nc3ccc(C4CC4)cc3F)c(F)c2F)c1F [D-15, N-Cyclopropyl-2-(4-cyclopropyl-2-fluoroanilino)-3,4-difluoro-5-[[2-fluoro-3-(methylsulfamoylamino)phenyl]methyl]benzamide] | 11 | 118 |  |  | 
COCC1(S(=O)(=O)Nc2cccc(Cc3cc(C(=O)NOC)c(Nc4ccc(I)cc4F)c(F)c3F)c2F)CC1 [E-3, 3,4-Difluoro-2-(2-fluoro-4-iodoanilino)-5-[[2-fluoro-3-[[1-(methoxymethyl)cyclopropyl]sulfonylamino]phenyl]methyl]-N-methoxybenzamide] |  |  |  | 149 | 
CS(=O)(=O)Nc1cccc(Cc2cc(C(N)=O)c(Nc3ccc(I)cc3F)c(F)c2F)c1F [E-13, 3,4-difluoro-2-(2-fluoro-4-iodoanilino)-5-[[2-fluoro-3-(methanesulfonamide)phenyl]methyl]benzamide] |  |  |  | 25 | 
CC1(S(=O)(=O)Nc2cccc(Cc3cc(C(N)=O)c(Nc4ccc(I)cc4F)c(F)c3F)c2F)CC1 [E-16, 3,4-Difluoro-2-(2-fluoro-4-iodoanilino)-5-[[2-fluoro-3-[(1-methylcyclopropyl)sulfonylamino]phenyl]methyl]benzamide] |  |  |  |  | <1
CS(=O)(=O)Nc1cccc(Cc2cc(C(=O)NC3CC3)c(Nc3ccc(I)cc3F)c(F)c2F)c1F [E-25, N-Cyclopropyl-3,4-difluoro-2-(2-fluoro-4-iodoanilino)-5-[[2-fluoro-3-(methanesulfonamide)phenyl]methyl]benzamide] |  |  |  | 8 | 
CNS(=O)(=O)Nc1nccc(Cc2cc(C(=O)NC3CC3)c(Nc3ccc(C4CC4)cc3F)c(F)c2F)c1F [G-1, N-Cyclopropyl-2-(4-cyclopropyl-2-fluoroanilino)-3,4-difluoro-5-[[3-fluoro-2-(methylsulfamoylamino)pyridin-4-yl]methyl]benzamide] | 6 | 65 | 21 |  | 
CNS(=O)(=O)Nc1nccc(Cc2cc(C(N)=O)c(Nc3ccc4sccc4c3F)c(F)c2F)c1F [H-3, 3,4-difluoro-2-[(4-fluoro-1-benzothiophen-5-yl)amino]-5-[[3-fluoro-2-(methylsulfamoylamino)pyridin-4-yl]methyl]benzamide] | 1 |  | 5 |  | 
CNS(=O)(=O)Nc1nccc(Cc2cc(C(N)=O)c(Nc3ccc(C4CC4)cc3F)n(C)c2=O)c1F [J-3, 2-(4-Cyclopropyl-2-fluoroanilino)-5-[[3-fluoro-2-(methylsulfamoylamino)pyridin-4-yl]methyl]-1-methyl-6-oxopyridine-3-carboxamide] | 123 | 972 | 854 |  | 
Cn1c(Nc2ccc(I)cc2F)c(C(N)=O)cc(Cc2ccnc(NS(=O)(=O)NC3CC3)c2F)c1=O [J-13, 5-[[2-(Cyclopropylsulfamoylamino)-3-fluoropyridin-4-yl]methyl]-2-(2-fluoro-4-iodoanilino)-1-methyl-6-oxopyridine-3-carboxamide] |  | 281 | 196 |  | 
CCNS(=O)(=O)Nc1nccc(Cc2cc(C(N)=O)c(Nc3ccc(I)cc3F)n(C)c2=O)c1F [J-14, 5-[[2-(ethylsulfamoylamino)-3-fluoropyridin-4-yl]methyl]-2-(2-fluoro-4-iodoanilino)-1-methyl-6-oxopyridine-3-carboxamide] |  | 123 | 121 |  | 
CCS(=O)(=O)Nc1cccc(Cc2cc(C(=O)NOC(C)(C)C)c(Nc3ccc(I)cc3F)n(C)c2=O)c1F [K-9, 5-[[3-(Ethylsulfonylamino)-2-fluorophenyl]methyl]-2-(2-fluoro-4-iodoanilino)-1-methyl-N-[(2-methylpropan-2-yl)oxy]-6-oxopyridine-3-carboxamide] |  |  |  | 185 | 
CCS(=O)(=O)Nc1nccc(Cn2cc(C(N)=O)c(Nc3ccc(I)cc3F)c(C)c2=O)c1F [P-2, 1-[[2-(ethylsulfonylamino)-3-fluoropyridin-4-yl]methyl]-4-(2-fluoro-4-iodoanilino)-5-methyl-6-oxopyridine-3-carboxamide] | 109 | 337 |  |  | 
CNS(=O)(=O)Nc1nccc(Cc2c(C)c3ccc(Oc4ncccn4)cc3oc2=O)c1F [Ref-5, 3-[[3-Fluoro-2-(methylsulfamoylamino)pyridin-4-yl]methyl]-4-methyl-7-pyrimidin-2-yloxychromen-2-one, reference compound] |  |  |  |  | <1
